Measured values reported in patent US8183230B2, “Antimicrobial preservatives to achieve multi-dose formulation using beta-cyclodextrins for liquid dosage forms” (priority 2004, dated 2012).

Tests used:
[1] = Calculated non-sequestered concentrations in formulations
Excerpt: These constants were used to calculate the concentration of non-sequestered meta-cresol in the formulations tested for anti-microbial efficacy.
The appearance of a plateau at the higher concentrations is only due to the limitation in the bactericidal efficacy measurement method. As the method consists in evaluating the population not killed by the preservative, when the whole population is dead (i.e. none is detectable any more ˜100%) the figure quoted is of the form: a log reduction greater than a value usually between 3 and 5.
The formulations were analyzed for preservative effectiveness.

[2] = Stability measurements (accelerated stability)
Procedure: Stability Measurements. Potential lead formulations were evaluated under various accelerated stability conditions in order to assess potency and purity of compound of Formula Ia, preservative content and SBE-CD content. For example, in one accelerated stability study, potential lead formulations were placed in stability ovens to measure short-term thermal stability. […] Purity and potency assays to measure compound of Formula Ia, as well as antimicrobial preservatives and SBE-CD content, were performed using validated HPLC methodology. SBE-CD was assayed using GTP 5984.

[3] = Equilibrium dialysis method for determining binding constants; conditions: for Keq / k: binary, SBE-CD 1.0 mM
Excerpt: In the present invention, the method to determine binding constants utilizes equilibrium dialysis in the development of a multi-use parenteral formulation containing SBE-CD and a preservative. In particular, the method was applied in developing a parenteral formulation comprising the compound of Formula Ia, a cyclodextrin (SBE-CD) and a preservative (meta-cresol). This approach is applicable to compounds other than the compound of Formula Ia in developing parenteral formulations and is within the scope of this invention. […] The significance of this procedure is its ability to measure the binding constant of multiple compounds competing for binding with the cyclodextrin. The experimental dialysis data also provides an easily interpreted representation of binding in the formulation by visualizing the degree of interaction by the equilibrium established following dialysis.
Equilibrium dialysis permits calculation of binding constants by modeling the resultant diffusion rate across a semi-permeable membrane with an equilibrium end point. Equilibrium dialysis is performed by allowing the substrate in a solution containing bound substrate and ligand in a donor compartment of an equilibrium dialysis apparatus (cell) to equilibrate over time with an acceptor compartment. Ono, N., Hirayama, F., Arima, H., Uekama, K. “Determination of Stability Constant of β-Cyclodextrin Complexes Using the Membrane Permeation Technique and the Permeation Behavior of Drug Competing Agent-β-Cyclodextrin Ternary Systems” Eur. J. Pharm. Sci. 1999 9:133-139. The acceptor cell contains no ligand. The membrane is semi-permeable allowing the typically low molecular weight substrates to freely diffuse, while the cyclodextrin (MW=2163) remains in the donor compartment. Sampling from both compartments over time yields a time-concentration profile of substrate in both the donor and acceptor compartments of the dialysis cell.
A mathematical model describing the diffusion rate of drug across the membrane can be derived for systems containing two or more components in solution. The dialysis rate and binding constant for the substrates are obtained by resolving the equation using nonlinear curve fitting software. Depending on the interactions between the components it is possible to describe the competitive binding that occurs in the solution. The equilibrium binding constant is a measure of the relative concentration of meta-cresol bound to SBE-CD according to the chemical equilibrium equation below: S=meta-cresol, L=SBE-CD. S:L indicates the complex formed between meta-cresol and SBE-CD.
The initial experiments established the equilibrium dialysis flux rates for compound of Formula Ia and meta-cresol across the 500 MWCO dialysis membrane. Three different concentrations of compound of Formula Ia were initially loaded into the donor side of the dialysis well. Samples were withdrawn at various time intervals and concentration of free component was measured using HPLC. […] The smoothed line was a fit to the data using the model for a unitary system presented in the discussion. The equilibrium point for all these control experiments was reached after 50% of the total drug was distributed uniformly across the donor and acceptor sides of the well. This asymptotic approach to equilibrium was modeled and the dialysis rates were calculated, Table II.
The primary method of analyzing the data was to perform calculations from equilibrium dialysis data, as described below. In particular, the rate of diffusion across the membrane was calculated using the following equations:
The rate of diffusion from the donor phase is defined by the following relationship: [D]t−[D]eq=([D]0−[D]eq)e^(−2kt) (1)
Rate of diffusion into the Acceptor Phase: [D]eq−[D]t=[D]eqe^(−2kt) (2) wherein
The basis of calculation in the presence of SBE-CD is to assume that complexation occurs only in the donor phase according to the standard complexation reaction:
The value for CyDF may be substituted into equation 8. […]

[4] = Solubility analysis (solubility method) for binding constant with SBE-CD; conditions: for K11 (equilibrium): meta-cresol saturated solubility in varying SBE-CD; for Slope / y-intercept: meta-cresol solubility vs. SBE-CD concentration
Procedure: Traditional solubility methods were performed initially to determine the solubility and binding constants of compound of Formula Ia and preservative with SBE-CD.
Binding was calculated for meta-cresol using solubility analysis. The experiment was performed at different concentrations of compound of Formula Ia to determine if there was any effect from the presence of drug in solution on the meta-cresol binding constant. Meta-cresol solubility was measured in excess (saturated) meta-cresol and the equilibrium binding constant was calculated using the following equation:
[formula] Where St is the total solubility of meta-cresol, s0 is the inherent solubility of meta-cresol, Lt is the total concentration of SBE-CD (ligand) and K11 is the equilibrium binding constant of meta-cresol assuming a 1 to 1 binding stoichiometry.

[5] = approximate ratio 1:1, Meta-cresol 1.1 mM
[6] = approximate ratio 1:2, Meta-cresol 0.6 mM
[7] = approximate ratio 1:4, Meta-cresol 0.3 mM
[8] = Compound of Formula Ia 00.00 mM
[9] = Compound of Formula Ia 10.67 mM
[10] = Compound of Formula Ia 21.34 mM
[11] = Compound of Formula Ia 42.67 mM

With `Cc1cccc(O)c1` [meta-cresol] the “minimum concentration of non sequestered preservative” value ([1]; for preservative effectiveness in drug/cyclodextrin/preservative formulations) was 2.1 mg/mL, the calculated non-sequestered concentration ([1]; preferred formulation: 10 mgA/mL compound, 63 mg/mL SBE-CD, 3.3 mg/mL meta-cresol, pH 4.4) was 2.8 mg/mL and the “stability in the formulation (in words)” value [2] was “excellent stability”. The “CONTENT (% INTENT)” value ([2]; 5° C., 1 week, Amber-Treated, 3 mg/mL meta-cresol, 100 mg/mL SBE-CD, 10 mgA/mL compound of Formula Ia) was 102 % INTENT, the “CONTENT (% INTENT)” value ([2]; 5° C., 1 week, Amber-Untreated, 3 mg/mL meta-cresol, 100 mg/mL SBE-CD, 10 mgA/mL compound of Formula Ia) was 102 % INTENT and the “CONTENT (% INTENT)” value ([2]; 5° C., 3 weeks, Amber-Treated, 3 mg/mL meta-cresol, 100 mg/mL SBE-CD, 10 mgA/mL compound of Formula Ia) was 104 % INTENT. The “CONTENT (% INTENT)” value ([2]; 5° C., 3 weeks, Amber-Untreated, 3 mg/mL meta-cresol, 100 mg/mL SBE-CD, 10 mgA/mL compound of Formula Ia) was 103 % INTENT, the “CONTENT (% INTENT)” value ([2]; 5° C., 6 weeks, Amber-Treated, 3 mg/mL meta-cresol, 100 mg/mL SBE-CD, 10 mgA/mL compound of Formula Ia) was 104 % INTENT and the “CONTENT (% INTENT)” value ([2]; 5° C., 6 weeks, Amber-Untreated, 3 mg/mL meta-cresol, 100 mg/mL SBE-CD, 10 mgA/mL compound of Formula Ia) was 102 % INTENT. For the same compound, the “CONTENT (% INTENT)” value ([2]; 5° C., 12 weeks, Amber-Treated, 3 mg/mL meta-cresol, 100 mg/mL SBE-CD, 10 mgA/mL compound of Formula Ia) was 98 % INTENT, the “CONTENT (% INTENT)” value ([2]; 5° C., 12 weeks, Amber-Untreated, 3 mg/mL meta-cresol, 100 mg/mL SBE-CD, 10 mgA/mL compound of Formula Ia) was 98 % INTENT and the “CONTENT (% INTENT)” value ([2]; 50° C., 1 week, Amber-Treated, 3 mg/mL meta-cresol, 100 mg/mL SBE-CD, 10 mgA/mL compound of Formula Ia) was 99 % INTENT. The “CONTENT (% INTENT)” value ([2]; 50° C., 1 week, Amber-Untreated, 3 mg/mL meta-cresol, 100 mg/mL SBE-CD, 10 mgA/mL compound of Formula Ia) was 100 % INTENT, the “CONTENT (% INTENT)” value ([2]; 50° C., 3 weeks, Amber-Treated, 3 mg/mL meta-cresol, 100 mg/mL SBE-CD, 10 mgA/mL compound of Formula Ia) was 103 % INTENT and the “CONTENT (% INTENT)” value ([2]; 50° C., 3 weeks, Amber-Untreated, 3 mg/mL meta-cresol, 100 mg/mL SBE-CD, 10 mgA/mL compound of Formula Ia) was 101 % INTENT. The “CONTENT (% INTENT)” value ([2]; 50° C., 6 weeks, Amber-Treated, 3 mg/mL meta-cresol, 100 mg/mL SBE-CD, 10 mgA/mL compound of Formula Ia) was 104 % INTENT, the “CONTENT (% INTENT)” value ([2]; 50° C., 6 weeks, Amber-Untreated, 3 mg/mL meta-cresol, 100 mg/mL SBE-CD, 10 mgA/mL compound of Formula Ia) was 102 % INTENT and the “CONTENT (% INTENT)” value ([2]; 50° C., 12 weeks, Amber-Treated, 3 mg/mL meta-cresol, 100 mg/mL SBE-CD, 10 mgA/mL compound of Formula Ia) was 100 % INTENT. For the same compound, the “CONTENT (% INTENT)” value ([2]; 70° C., 1 week, Amber-Treated, 3 mg/mL meta-cresol, 100 mg/mL SBE-CD, 10 mgA/mL compound of Formula Ia) was 100 % INTENT, the “CONTENT (% INTENT)” value ([2]; 70° C., 1 week, Amber-Untreated, 3 mg/mL meta-cresol, 100 mg/mL SBE-CD, 10 mgA/mL compound of Formula Ia) was 100 % INTENT and the “CONTENT (% INTENT)” value ([2]; 70° C., 2 weeks, Amber-Treated, 3 mg/mL meta-cresol, 100 mg/mL SBE-CD, 10 mgA/mL compound of Formula Ia) was 103 % INTENT. The “CONTENT (% INTENT)” value ([2]; 70° C., 2 weeks, Amber-Untreated, 3 mg/mL meta-cresol, 100 mg/mL SBE-CD, 10 mgA/mL compound of Formula Ia) was 103 % INTENT, the “CONTENT (% INTENT)” value ([2]; 70° C., 3 weeks, Amber-Treated, 3 mg/mL meta-cresol, 100 mg/mL SBE-CD, 10 mgA/mL compound of Formula Ia) was 100 % INTENT and the “CONTENT (% INTENT)” value ([2]; 70° C., 3 weeks, Amber-Untreated, 3 mg/mL meta-cresol, 100 mg/mL SBE-CD, 10 mgA/mL compound of Formula Ia) was 102 % INTENT. The “CONTENT (% INTENT)” value ([2]; 70° C., 6 weeks, Amber-Treated, 3 mg/mL meta-cresol, 100 mg/mL SBE-CD, 10 mgA/mL compound of Formula Ia) was 101 % INTENT, the “CONTENT (% INTENT)” value ([2]; 70° C., 6 weeks, Amber-Untreated, 3 mg/mL meta-cresol, 100 mg/mL SBE-CD, 10 mgA/mL compound of Formula Ia) was 101 % INTENT and the “CONTENT (% INTENT)” value ([2]; 70° C., 12 weeks, Amber-Treated, 3 mg/mL meta-cresol, 100 mg/mL SBE-CD, 10 mgA/mL compound of Formula Ia) was 100 % INTENT. The “CONTENT (% INTENT)” value ([2]; 70° C., 12 weeks, Amber-Untreated, 3 mg/mL meta-cresol, 100 mg/mL SBE-CD, 10 mgA/mL compound of Formula Ia) was 100 % INTENT, the “CONTENT (% INTENT)” value ([2]; ICH Photostability, 1X ICH UV/FI, Amber-Treated, 3 mg/mL meta-cresol, 100 mg/mL SBE-CD, 10 mgA/mL compound of Formula Ia) was 102 % INTENT and the “CONTENT (% INTENT)” value ([2]; ICH Photostability, 1X ICH UV/FI, Amber-Untreated, 3 mg/mL meta-cresol, 100 mg/mL SBE-CD, 10 mgA/mL compound of Formula Ia) was 102 % INTENT. For the same compound, the “loss / potency decrease” value ([2]; after 12 weeks at 70° C., relative to 1 week at 5° C., 3 mg/mL meta-cresol, 100 mg/mL SBE-CD, 10 mgA/mL compound of Formula Ia) was 2%, the “ACCEPTABLE STABILITY” value ([2]; pH 4.4, 10% SBE-CD, 10 mgA/mL compound of Formula Ia) was “✓” and the Keq [3, 5] was 88 M⁻¹. It also gave a k [3, 5] of 1.984 h⁻¹, a Keq [3, 6] of 75 M⁻¹ and a k [3, 6] of 2.182 h⁻¹. The Keq [3, 7] was 85 M⁻¹, the k [3, 7] was 2.761 h⁻¹ and the “binding constant with SBE-CD” value ([3]; equilibrium dialysis method, binary systems, drug ±352 M−1, n=3, preservative ±7 M−1) was 83 M⁻¹. For the same compound, the “binding of preservative to cyclodextrin in ternary systems” value ([3]; ternary systems of SBE-CD, drug and preservative at the ratios tested, equilibrium profile) was “not bound to cyclodextrin”, the “Average Binding Constant” value ([4]; average over Compound of Formula Ia 00.00 to 42.67 mM) was 27.59 M⁻¹ and the “K11 (equilibrium)” value [4, 8] was 24.53 M⁻¹. The “K11 (equilibrium)” value [4, 9] was 25.78 M⁻¹, the “K11 (equilibrium)” value [4, 10] was 35.46 M⁻¹ and the “K11 (equilibrium)” value [4, 11] was 24.59 M⁻¹. It also gave a Slope [4, 8] of 0.46, a y-intercept [4, 8] of 34.06 mM and a Slope [4, 9] of 0.46. For the same compound, the y-intercept [4, 9] was 33.15 mM, the Slope [4, 10] was 0.53 and the y-intercept [4, 10] was 32.15 mM. For the same compound, the Slope [4, 11] was 0.43, the y-intercept [4, 11] was 31.15 mM and the “equilibrium binding constant, averaged across the studies” value ([4]; solubility method, SBE-CD) was 27.6 M⁻¹. For the same compound, the “binding constant with SBE-CD” value ([4]; solubility method, n=1) was 28 M⁻¹.
